Experimental data from US6965113B2, “Fluorescence intensity multiple distributions analysis: concurrent determination of diffusion times and molecular brightness” (Evotec AG, priority 2000, dated 2005).
Read-outs that look alike come from different tables or passages of the source. Square brackets hold non-standard residues; d marks the D form. Peptide text beside a SMILES is read from it. * marks the point of attachment. X1 = CC[N+]1=C(C=CC=CC=C2N(CCCCCC(=O)*)c3ccc(S(=O)(=O)O)cc3C2(C)C)C(C)(C)c2cc(S(=O)(=O)[O-])ccc21; pY = N[C@@H](Cc1ccc(OP(=O)(O)O)cc1)C(=O)O

Tests used:
[1] = target: T1, SH2 domain of Grb2 (Homo sapiens, UniProt P62993); assay: Experiment 1: titration of SH2 against constant 0.4 nM pTyr-Val-Asn-Val-Lys(Cy5), confocal fluorescence fluctuation measurement (FIMDA, FCS, FIDA), hyperbolic fit of fraction bound; conditions: 0.4 nM conjugate, same buffer, T=20° C., read-out: binding constant KD for the SH2-phosphopeptide interaction
T1 construct: as a model system, the bare SH2 domain (14.3 kDa) has been chosen; made in house
From the text: The central optical part of the present FIMDA experiment is a confocal microscope as it is used in fluorescence correlation spectroscopy (Koppel et al., Biophys. J. 16: 1315-1329, 1976: Rigler et al., Eur. Biophys. J. 22: 169-175, 1993). For the excitation of fluorescence, a beam from a continuous wave laser is attenuated to ˜800 μW by neutral density filters, passes a beam expander, and is directed to the microscope objective (UApo/340, 40x, N.A. 1.15, Olympus Optical Co. Ltd., Tokyo, Japan) by a dichroic mirror. Fluorescence is collected by the said objective through the dichroic mirror, a spectral band-pass filter, and is focused to a confocal pinhole, which serves to reject the out-of-focus light. The light, which passes the pinhole, is detected by a silicon photon counting module (SPCM-AQ-131, EG&G Optoelectronics, Vaudreuil, Canada). […]
A series of simultaneously measured or simulated distributions is globally fitted using a Marquardt algorithm. […] Theoretical distributions are calculated using exactly the same algorithm as in FIDA, except that each species has an individual apparent concentration and an apparent brightness at each time window, calculated according to Eqs. […]

[2] = target: T2, SH2-domain of the adapter protein Grb2 (Homo sapiens, UniProt P62993); assay: Experiment 2: titration of SH2 against constant 0.8 nM pTyr-Val-Asn-Val-Lys(Cy5), FCS, FIDA and FIMDA data collected simultaneously; type: binding; conditions: 0.8 nM conjugate, T=20° C.
T2 construct: as a model system, the bare SH2 domain (14.3 kDa) has been chosen; made in house
Method: Since the diffusion time of the dye is […] (compared to 40 μs) it spends only a short time in the confocal volume and its apparent brightness decreases. From this information the diffusion time can be calculated from a global fit.
The viability of the present invention was tested by measurements characterizing a ligand-protein interaction. The minimal peptide sequence pTyr-Val-Asn (originating from tyrosine kinase growth factor receptors) binds to the SH2-domain of the adapter protein Grb2. The conjugate pTyr-Val-Asn-Val-Lys(Cy5) was synthesized as binding partner for SH2. All measurements were performed under identical conditions (e.g. same buffer: sterile filter water, 50 mM Na-phosphate buffer pH 7.8, 50 mM NaCl and 0.05% Pluronic; T=20° C.). To obtain the KD value for the ligand protein interaction a titration experiment was carried out. The pTyr-Val-Asn-Val-Lys(Cy5) concentration was kept constant at 0.8 nM, while SH2 was subject to titration (0.01, 0.03, 0.1, 0.3, 1, 3, 10, 30, 100, and 130 μM). Each sample was measured 30 times keeping the acquisition time at 30 seconds per measurement. FCS (prior art), FIDA (prior art) and FIMDA (present invention) data were collected simultaneously in order to compare all three methods. It becomes clear that FIMDA is able to resolve both, the specific brightness and the diffusion time of both species (ligand and complex). Therefore, FIMDA is a more versatile tool than FCS or FIDA and will save assay development time. Comparing the standard deviations of all methods in determining brightness and diffusion time FIMDA is better or at least as good as FCS or FIDA.

T2 sequence (P62993 60-152 limits assumed): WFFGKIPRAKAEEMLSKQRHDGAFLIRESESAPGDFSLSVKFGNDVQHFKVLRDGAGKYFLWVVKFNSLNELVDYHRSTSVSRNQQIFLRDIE
T1 sequence (P62993 60-152 limits assumed): as above

For `CC[N+]1=C(C=CC=CC=C2N(CCCCCC(=O)NCCCC[C@H](NC(=O)[C@@H](NC(=O)[C@H](CC(N)=O)NC(=O)[C@@H](NC(=O)[C@@H](N)Cc3ccc(OP(=O)(O)O)cc3)C(C)C)C(C)C)C(=O)O)c3ccc(S(=O)(=O)O)cc3C2(C)C)C(C)(C)c2cc(S(=O)(=O)[O-])ccc21` [pTyr-Val-Asn-Val-Lys(Cy5)] (H-[pY]VNVK(X1)-OH; N-terminus and C-terminus assumed), which Kd ([1]; FCS) is on record?
Its Kd is 2160 ± 190 nM.

And the Kd ([1]; FIDA)?
The Kd was 1600 ± 190 nM.

What about the Kd ([2]; FCS, same buffer) of the same molecule?
The Kd was 2260 ± 280 nM.

And the Kd ([2]; FIDA, same buffer)?
Its Kd is 1700 ± 290 nM.

And the Kd ([2]; FIMDA, 50 mM Na-phosphate buffer pH 7.8, 50 mM NaCl, 0.05% Pluronic)?
The Kd was 1680 ± 270 nM.
